Data as given in US9562036B2, “Fluoromethyl-substituted pyrrole carboxamides as CaV2.2 calcium channel blockers” (GRÜNENTHAL GMBH, priority 2013, dated 2017).

target: T1, Human CaV2.2 channels (Homo sapiens, UniProt Q00975); test: Fluorescent assay for CaV2.2 channels using potassium depolarization to induce channel opening (FLIPR, Fluo 4); assay type: cell-based; conditions: 3 μM test compound; 30 mM KCl alternative assay buffer (inactivated channel state); HEK293 cells; read-out: %-Inhib (CaV2.2) @3 μM @30 mM KCl
T1 construct: expressed in transfected cells; also stably expressing Kir2.3)
T1 sequence (Q00975 whole entry): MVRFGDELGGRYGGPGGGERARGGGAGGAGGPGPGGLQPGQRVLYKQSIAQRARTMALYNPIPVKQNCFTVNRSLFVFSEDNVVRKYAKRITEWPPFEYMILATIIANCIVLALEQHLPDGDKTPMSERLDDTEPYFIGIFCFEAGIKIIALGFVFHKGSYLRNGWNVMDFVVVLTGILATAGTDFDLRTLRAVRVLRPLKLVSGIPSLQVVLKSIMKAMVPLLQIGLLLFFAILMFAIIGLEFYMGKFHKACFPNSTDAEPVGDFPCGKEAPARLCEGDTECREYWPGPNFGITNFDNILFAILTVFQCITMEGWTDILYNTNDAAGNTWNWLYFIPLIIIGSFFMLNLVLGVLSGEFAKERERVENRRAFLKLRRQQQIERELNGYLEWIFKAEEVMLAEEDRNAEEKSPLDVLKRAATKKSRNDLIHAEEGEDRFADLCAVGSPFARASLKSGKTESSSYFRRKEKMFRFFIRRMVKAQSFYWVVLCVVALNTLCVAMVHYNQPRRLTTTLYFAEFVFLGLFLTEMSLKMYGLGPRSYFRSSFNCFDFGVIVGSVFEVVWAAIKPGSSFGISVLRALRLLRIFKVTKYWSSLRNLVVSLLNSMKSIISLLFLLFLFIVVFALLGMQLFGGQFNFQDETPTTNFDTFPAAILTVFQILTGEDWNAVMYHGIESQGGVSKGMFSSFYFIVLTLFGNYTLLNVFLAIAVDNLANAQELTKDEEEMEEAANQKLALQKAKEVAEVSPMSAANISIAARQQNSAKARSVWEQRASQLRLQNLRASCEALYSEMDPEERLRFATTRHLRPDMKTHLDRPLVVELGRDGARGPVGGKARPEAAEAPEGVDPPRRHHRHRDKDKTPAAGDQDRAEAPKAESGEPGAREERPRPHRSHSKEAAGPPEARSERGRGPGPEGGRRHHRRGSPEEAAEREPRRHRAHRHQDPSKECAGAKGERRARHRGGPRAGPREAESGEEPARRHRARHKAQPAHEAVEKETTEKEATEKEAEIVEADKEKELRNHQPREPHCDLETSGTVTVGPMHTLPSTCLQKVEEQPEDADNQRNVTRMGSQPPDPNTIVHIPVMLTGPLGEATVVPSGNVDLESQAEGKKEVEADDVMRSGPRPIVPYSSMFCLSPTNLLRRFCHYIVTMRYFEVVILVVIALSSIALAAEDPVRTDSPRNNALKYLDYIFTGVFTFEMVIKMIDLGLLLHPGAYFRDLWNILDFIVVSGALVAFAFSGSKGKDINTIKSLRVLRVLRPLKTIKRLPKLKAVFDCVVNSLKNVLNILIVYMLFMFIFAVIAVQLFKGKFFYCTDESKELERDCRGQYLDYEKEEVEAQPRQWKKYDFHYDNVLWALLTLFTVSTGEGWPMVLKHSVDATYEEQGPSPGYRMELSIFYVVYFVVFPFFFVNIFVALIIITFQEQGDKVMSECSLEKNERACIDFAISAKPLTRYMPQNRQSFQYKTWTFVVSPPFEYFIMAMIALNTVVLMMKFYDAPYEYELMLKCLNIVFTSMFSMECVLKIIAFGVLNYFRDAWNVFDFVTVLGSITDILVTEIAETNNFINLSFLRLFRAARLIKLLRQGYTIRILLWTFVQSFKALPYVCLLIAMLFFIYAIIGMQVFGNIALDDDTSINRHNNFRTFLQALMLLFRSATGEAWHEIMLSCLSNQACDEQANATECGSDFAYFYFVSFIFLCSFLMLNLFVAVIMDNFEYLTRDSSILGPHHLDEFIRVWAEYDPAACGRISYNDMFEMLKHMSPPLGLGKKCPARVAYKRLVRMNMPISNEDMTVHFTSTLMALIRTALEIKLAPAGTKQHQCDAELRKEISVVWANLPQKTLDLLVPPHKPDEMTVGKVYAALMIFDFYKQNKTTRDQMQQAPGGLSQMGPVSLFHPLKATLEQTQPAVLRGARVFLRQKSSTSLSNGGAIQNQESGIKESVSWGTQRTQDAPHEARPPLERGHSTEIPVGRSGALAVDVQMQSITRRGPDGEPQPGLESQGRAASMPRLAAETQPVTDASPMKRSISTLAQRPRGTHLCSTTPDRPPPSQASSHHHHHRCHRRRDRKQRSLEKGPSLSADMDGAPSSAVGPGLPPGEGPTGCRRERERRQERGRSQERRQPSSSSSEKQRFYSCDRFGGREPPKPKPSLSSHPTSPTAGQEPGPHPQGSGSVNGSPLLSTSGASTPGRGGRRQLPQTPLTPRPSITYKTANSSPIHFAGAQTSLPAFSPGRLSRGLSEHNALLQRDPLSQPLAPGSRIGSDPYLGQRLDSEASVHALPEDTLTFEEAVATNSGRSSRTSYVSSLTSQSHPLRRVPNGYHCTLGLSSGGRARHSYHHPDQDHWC
From the text: In the process, the Ca^2+ influx is quantified in the FLIPR assay with the aid of a Ca^2+-sensitive dye (type Fluo-4, Molecular Probes Europe BV, Leiden, the Netherlands) in a fluorescent imaging plate reader (FLIPR 3, Molecular Devices, Sunnyvale, USA), as described hereinafter.
2. Assay Descriptions and Biological Data: 2.1 Fluorescent Assay for CaV2.2 Channels Using Potassium Depolarization to Induce Channel Opening
Human CaV2.2 channels were stably expressed in HEK293 cells together with alpha2-delta and beta subunits of voltage gated calcium channels. In addition, an inwardly rectifying potassium channel (Kir2.3) was stably expressed in these cells to augment control of the cell membrane potential by the concentration of extracellular potassium ions. Raise of the extracellular potassium concentration leads to depolarization of the membrane potential and thus regulates the voltage dependent state of CaV2.2 channels. For preparation, cells were seeded in black poly-D-lysine coated 96-well plates (Becton Dickinson, Biocoat 4640) in 100 μL medium [500 mL DMEM/F-12 plus Glutamax (Invitrogen 31331-093) plus 5.5 mL MEM NEAA 100× (Invitrogen 11140-035) plus 50 mL FBS decomplemented (Invitrogen 10270-106) plus 200 μg/mL Geneticin (Invitrogen 10131-027) plus 50 μg/mL Hygromycin B (Invitrogen 10687-010) plus 2 μg/mL Blasticidin (anti-bl5b Invivo-Gen) plus 0.2 μg/mL Puromycin (A 11138-03)] at a cell density of 30.000 cells per well. Plates were incubated at 37° C. (5% CO2) for 20 to 23 h. On the day of experiment medium was discarded and cells were loaded with Fluo 4 by addition of 100 μL of basic assay buffer (10 mM HEPES, 1 mM KCl, 149 mM NaCl, 0.8 mM CaC2, 1.7 mM MgCl2, 10 mM Glucose, 0.1% BSA. pH 7.4) containing 2 μM Fluo 4 (Molecular Probes; F-14201), 0.01% pluronic acid (Molecular Probes; P-6866) and 2.5 mM probenecid (Molecular Probes; P36400). Cells were incubated in the dark at 25° C. for 60 min. Then dye containing buffer was discarded and 100 μL basic (1 mM KCl) or alternative (30 mM KCl) assay buffer was added. The alternative assay buffer contained altered concentrations of KCl (30 mM) and NaCl (120 mM) and was used in order to promote the inactivated channel state. After that 25 μL of basic or alternative assay buffer with or without test compound were added and cells were incubated again in the dark at 25° C. for 15 min. Fluorescence intensity was measured on a FLIPR 3 instrument (Molecular Devices Corp., Sunnyvale, Calif.) with excitation at 480 nm and emission at 535 nm. After continuously reading fluorescence for 30 sec, 50 μL of basic assay buffer containing 210 mM KCl (NaCl omitted) were added for depolarization. Peak fluorescent signal intensity was determined and the amplitude of the peak signal, normalized to base line, was used to measure channel inhibition by test compounds.

| Structure (SMILES) | inhibition at 3 µM [%] |
| --- | --- |
| Cc1cc(Cl)ncc1-c1c(C)c(C(F)(F)F)n(Cc2ccccc2)c1C(=O)N1CCOCC1 [Example 27, [1-Benzyl-3-(6-chloro-4-methyl-pyridin-3-yl)-4-methyl-5-(trifluoromethyl)-1H-pyrrol-2-yl]-morpholin-4-yl-methanone] | 75 to 95 |
| COc1cc(C)c(-c2c(C)c(C(F)(F)F)n(Cc3ccccc3)c2C(=O)N2CCOCC2)cn1 [Example 28, [1-Benzyl-3-(6-methoxy-4-methyl-pyridin-3-yl)-4-methyl-5-(trifluoromethyl)-1H-pyrrol-2-yl]-morpholin-4-yl-methanone] | 75 to 95 |
| Cc1c(-c2ccc(Cl)nn2)c(C(=O)N2CCOCC2)n(Cc2ccccc2)c1C(F)(F)F [Example 29, [1-Benzyl-3-(6-chloro-pyridazin-3-yl)-4-methyl-5-(trifluoromethyl)-1H-pyrrol-2-yl]-morpholin-4-yl-methanone] | 40 to 75 |
| COc1cnc(-c2c(C)c(C(F)(F)F)n(Cc3ccccc3)c2C(=O)N(C)CC(C)(C)C)nc1 [Example 30, 1-Benzyl-3-(5-methoxypyrimidin-2-yl)-N,4-dimethyl-N-neopentyl-5-(trifluoromethyl)-1H-pyrrole-2-carboxamide] | 75 to 95 |
| Cc1c(-c2ccc(F)cn2)c(C(=O)N(C)CC(C)(C)C)n(Cc2ccccc2)c1C(F)(F)F [Example 31, 1-Benzyl-3-(5-fluoropyridin-2-yl)-N,4-dimethyl-N-neopentyl-5-(trifluoromethyl)-1H-pyrrole-2-carboxamide] | > 95 |
| Cc1c(-c2ccnnc2)c(C(=O)N(C)CC(C)(C)C)n(Cc2ccccc2)c1C(F)(F)F [Example 32, 1-Benzyl-N,4-dimethyl-N-neopentyl-3-(pyridazin-4-yl)-5-(trifluoromethyl)-1H-pyrrole-2-carboxamide] | 75 to 95 |
| Cc1c(-c2ncc(F)cn2)c(C(=O)N(C)CC(C)(C)C)n(Cc2ccccc2)c1C(F)(F)F [Example 33, 1-Benzyl-3-(5-fluoropyrimidin-2-yl)-N,4-dimethyl-N-neopentyl-5-(trifluoromethyl)-1H-pyrrole-2-carboxamide] | > 95 |
| Cc1c(-c2cnccn2)c(C(=O)N(C)CC(C)(C)C)n(Cc2ccccc2)c1C(F)(F)F [Example 34, 1-Benzyl-N,4-dimethyl-N-neopentyl-3-(pyrazin-2-yl)-5-(trifluoromethyl)-1H-pyrrole-2-carboxamide] | 75 to 95 |
| Cc1c(-c2ncccn2)c(C(=O)N(C)CC(C)(C)C)n(Cc2ccccc2)c1C(F)(F)F [Example 35, 1-Benzyl-N,4-dimethyl-N-neopentyl-3-(pyrimidin-2-yl)-5-(trifluoromethyl)-1H-pyrrole-2-carboxamide] | 75 to 95 |
| Cc1c(-c2ccc(F)cn2)c(C(=O)N2CCOCC2)n(Cc2ccccc2)c1C(F)(F)F [Example 36, (1-Benzyl-3-(5-fluoropyridin-2-yl)-4-methyl-5-(trifluoromethyl)-1H-pyrrol-2-yl)(morpholino)methanone] | 75 to 95 |
| Cc1c(-c2ccnnc2)c(C(=O)N2CCOCC2)n(Cc2ccccc2)c1C(F)(F)F [Example 37, (1-Benzyl-4-methyl-3-(pyridazin-4-yl)-5-(trifluoromethyl)-1H-pyrrol-2-yl)(morpholino)methanone] | 40 to 75 |
| Cc1c(-c2ncc(F)cn2)c(C(=O)N2CCOCC2)n(Cc2ccccc2)c1C(F)(F)F [Example 38, (1-Benzyl-3-(5-fluoropyrimidin-2-yl)-4-methyl-5-(trifluoromethyl)-1H-pyrrol-2-yl)(morpholino)methanone] | 40 to 75 |
| Cc1c(-c2cnccn2)c(C(=O)N2CCOCC2)n(Cc2ccccc2)c1C(F)(F)F [Example 39, (1-Benzyl-4-methyl-3-(pyrazin-2-yl)-5-(trifluoromethyl)-1H-pyrrol-2-yl)(morpholino)methanone] | 40 to 75 |
| Cc1c(-c2ncccn2)c(C(=O)N2CCOCC2)n(Cc2ccccc2)c1C(F)(F)F [Example 40, (1-Benzyl-4-methyl-3-(pyrimidin-2-yl)-5-(trifluoromethyl)-1H-pyrrol-2-yl)(morpholino)methanone] | 40 to 75 |
| Cc1c(-c2ccc(Cl)cn2)c(C(=O)N(C)CC(C)(C)C)n(Cc2ccccc2)c1C(F)(F)F [Example 41, 1-Benzyl-3-(5-chloro-pyridin-2-yl)-N-(2,2-dimethyl-propyl)-N,4-dimethyl-5-(trifluoromethyl)-1H-pyrrole-2-carboxylic acid amide] | > 95 |
| Cc1c(-c2ccc(Cl)cn2)c(C(=O)N2CCOCC2)n(Cc2ccccc2)c1C(F)(F)F [Example 42, [1-Benzyl-3-(5-chloro-pyridin-2-yl)-4-methyl-5-(trifluoromethyl)-1H-pyrrol-2-yl]-morpholin-4-yl-methanone] | > 95 |
| Cc1c(-c2ccc(Cl)cn2)c(C(=O)N(C)CCS(C)(=O)=O)n(Cc2ccccc2)c1C(F)(F)F [Example 43, 1-Benzyl-3-(5-chloro-pyridin-2-yl)-N,4-dimethyl-N-(2-methylsulfonyl-ethyl)-5-(trifluoromethyl)-1H-pyrrole-2-carboxylic acid amide] | > 95 |
| Cc1c(-c2ncc(Cl)cn2)c(C(=O)N2CCS(=O)(=O)CC2)n(Cc2ccccc2)c1C(F)(F)F [Example 44, [1-Benzyl-3-(5-chloro-pyrimidin-2-yl)-4-methyl-5-(trifluoromethyl)-1H-pyrrol-2-yl]-(1,1-dioxo-[1,4]thiazinan-4-yl)-methanone] | 75 to 95 |
| Cc1c(-c2ncc(Cl)cn2)c(C(=O)N2CCOC(C)(C)C2)n(Cc2ccccc2)c1C(F)(F)F [Example 45, [1-Benzyl-3-(5-chloro-pyrimidin-2-yl)-4-methyl-5-(trifluoromethyl)-1H-pyrrol-2-yl]-(2,2-dimethyl-morpholin-4-yl)-methanone] | > 95 |
| Cc1c(-c2ncc(Cl)cn2)c(C(=O)NC2CC2)n(Cc2ccccc2)c1C(F)(F)F [Example 46, 1-Benzyl-3-(5-chloro-pyrimidin-2-yl)-N-cyclopropyl-4-methyl-5-(trifluoromethyl)-1H-pyrrole-2-carboxylic acid amide] | 40 to 75 |
| Cc1c(-c2ncc(Cl)cn2)c(C(=O)N2CCNC(=O)C2)n(Cc2ccccc2)c1C(F)(F)F [Example 47, 4-[1-Benzyl-3-(5-chloro-pyrimidin-2-yl)-4-methyl-5-(trifluoromethyl)-1H-pyrrole-2-carbonyl]-piperazin-2-one] | 40 to 75 |
| Cc1c(-c2ncc(Cl)cn2)c(C(=O)N(C)CC(C)(C)C(N)=O)n(Cc2ccccc2)c1C(F)(F)F [Example 48, 1-Benzyl-N-(2-carbamoyl-2-methyl-propyl)-3-(5-chloro-pyrimidin-2-yl)-N,4-dimethyl-5-(trifluoromethyl)-1H-pyrrole-2-carboxylic acid amide] | > 95 |
| Cc1c(-c2ncc(Cl)cn2)c(C(=O)N(C)CC(C)(C)C#N)n(Cc2ccccc2)c1C(F)(F)F [Example 49, 1-Benzyl-3-(5-chloro-pyrimidin-2-yl)-N-(2-cyano-2-methyl-propyl)-N,4-dimethyl-5-(trifluoromethyl)-1H-pyrrole-2-carboxylic acid amide] | > 95 |
| Cc1c(-c2ccc(Cl)cn2)c(C(=O)N(C)C(C)C)n(Cc2ccccc2)c1C(F)(F)F [Example 50, 1-Benzyl-3-(5-chloro-pyridin-2-yl)-N-isopropyl-N,4-dimethyl-5-(trifluoromethyl)-1H-pyrrole-2-carboxylic acid amide] | > 95 |
| Cc1c(-c2ccn(C)n2)c(C(=O)N(C)C(C)C)n(Cc2ccccc2)c1C(F)(F)F [Example 51, 1-Benzyl-N-isopropyl-N,4-dimethyl-3-(1-methyl-1H-pyrazol-3-yl)-5-(trifluoromethyl)-1H-pyrrole-2-carboxylic acid amide] | 75 to 95 |
| Cc1c(-c2ncc(Cl)cn2)c(C(=O)NC(C)C)n(Cc2ccccc2)c1C(F)(F)F [Example 52, 1-Benzyl-3-(5-chloro-pyrimidin-2-yl)-N-isopropyl-4-methyl-5-(trifluoromethyl)-1H-pyrrole-2-carboxylic acid amide] | 40 to 75 |
